Measurements taken from US4310660A, “Lincomycin compounds” (The Upjohn Company, priority 1980, dated 1982).
≈ marks a conversion by molar mass, not a printed value. Where two headings read alike, the source gives them in different places.

How the values were obtained:
[1] = system: Staphylococcus aureus; assay: MIC vs. aerobic bacteria, microplate broth-dilution (BHI); format: cell-based; conditions: Staphylococcus aureus
[2] = system: Diplococcus pneumoniae; assay: as above; format: cell-based; conditions: Streptococcus pneumoniae
Procedure: (§1) The Minimal Inhibitory Concentration (MIC's) of both compounds Vs. aerobic bacteria is determined using a standard microplate broth-dilution method. Brain Heart Infusion (BHI-Difco) broth medium is used, and the plates are incubated at 37° C. for 20 hrs.

[3] = system: Escherichia coli; assay: as above; format: cell-based
Procedure: as §1

[4] = system: Streptococcus faecalis; assay: as above; format: cell-based; conditions: Enterococcus faecalis
Procedure: as §1

[5] = system: Proteus vulgaris; assay: as above; format: cell-based; conditions: Proteus vulgaris, UC93, 20 h, P. vulgaris UC 93; read-out: MIC
Procedure: as §1

[6] = system: Pseudomonas aeruginosa; assay: as above; format: cell-based
Procedure: as §1

[7] = system: Klebsiella pneumoniae; assay: as above; format: cell-based; conditions: Klebsiella pneumoniae
Procedure: as §1

[8] = system: Salmonella schottmuelleri; assay: as above; format: cell-based; conditions: Salmonella
Procedure: as §1

[9] = system: S. lutea; assay: MIC, test procedure as given supra; format: cell-based; conditions: Micrococcus luteus, UC130, 20 h; S. lutea UC 130
Procedure: as §1
(§2) The Minimal Inhibitory Concentration (MIC's) of a representative number of the compounds prepared in Examples 2-8 follows. The test procedure is as given supra.

[10] = system: S. hemolyticus; assay: MIC, test procedure as given supra; format: cell-based; conditions: UC152, 20 h, S. hemolyticus UC 152; read-out: MIC
Procedure: as §1, §2

[11] = system: D. pneumoniae III; assay: Mouse Protection Test; format: in vivo; conditions: for ED50: Streptococcus pneumoniae, 168 h, read-out: Median Protective Dose (CD50); for ED50 / Median Protective Dose (CD50): strain MPI III, two experiments listed; for Median Protective Dose (CD50): 10080 min, listed as U-60970E . Hcl
Excerpt: (§3) Immediately before use, the suspensions were thawed quickly and properly diluted. Infection was via the intrapertioneal route.
(§4) Treatment of the infected groups was begun immediately and continued once per day for 4 days (first 24 hr period=1). Groups of untreated mice served as virulence controls for the culture.
(§5) Seven days after the treatment regimen was begun the surviving animals were sacrificed and the median protective dose of the antibiotic calculated on the basis of mortality rates in the treatment groups. The median protective dose and its 95% confidence interval were calculated according to the method of Spearmen & Karber as programmed on a 360 digital computer.
(§6) U-60,970E was also tested in vivo in standard laboratory mice which were experimentally infected with bacteria. The test was conducted in comparison with U-57,930E.

[12] = system: D. pneumoniae I; assay: Mouse Protection Test; format: in vivo; conditions: for ED50: Streptococcus pneumoniae, 168 h, strain Felton I, read-out: Median Protective Dose (CD50)
Excerpt: as §3, §4, §5, §6

[13] = system: Streptococcus pyogenes; assay: MIC vs. aerobic bacteria, microplate broth-dilution (BHI); format: cell-based; conditions: UC152, UC 152, read-out: Minimal Inhibitory Concentration (MIC)
Procedure: as §1

[14] = system: S. aureus; assay: Mouse Protection Test; format: in vivo; conditions: for ED50: Staphylococcus aureus, read-out: Median Protective Dose (CD50)
Excerpt: as §3, §4, §5

[15] = system: S. hemolyticus; assay: Mouse Protection Test; format: in vivo; conditions: for ED50: 168 h, read-out: Median Protective Dose (CD50)
Excerpt: as §3, §4, §5

[16] = system: S. lutea; assay: Qual. Assay vs. S. lutea; format: cell-based; conditions: qualitative
[17] = system: bacteria; assay: antibacterial activity (general statement)
[18] = UC76, S. aureus UC 76, read-out: Minimal Inhibitory Concentration (MIC)
[19] = UC570, S. aureus UC 570, read-out: Minimal Inhibitory Concentration (MIC)
[20] = UC746, S. aureus UC 746, read-out: Minimal Inhibitory Concentration (MIC)
[21] = UC41, Diplococcus pneumoniae I, UC 41, read-out: Minimal Inhibitory Concentration (MIC)
[22] = UC45, UC 45, read-out: Minimal Inhibitory Concentration (MIC)
[23] = UC694, UC 694, read-out: Minimal Inhibitory Concentration (MIC)
[24] = UC95, UC 95, read-out: Minimal Inhibitory Concentration (MIC)
[25] = UC58, UC 58, read-out: Minimal Inhibitory Concentration (MIC)
[26] = UC126, UC 126, read-out: Minimal Inhibitory Concentration (MIC)

CCc1ccnc(C(=O)N[C@@H]([C@H]2O[C@H](SC)[C@H](O)[C@@H](O)[C@H]2O)[C@H](C)O)c1 [U-45,659]
MIC ([1]; UC76, 20 h, S. aureus UC 76, read-out: MIC): > 1000 µg/mL | MIC ([1]; UC570, 20 h, S. aureus UC 570, read-out: MIC): > 1000 µg/mL | MIC ([1]; UC746, 20 h, S. aureus UC 746, read-out: MIC): 1000 µg/mL (≈ 2590 µM) | MIC ([2]; UC41, 20 h, D. pneumoniae UC 41, read-out: MIC): 500 µg/mL (≈ 1290 µM) | MIC ([3]; UC45, 20 h, E. coli UC 45, read-out: MIC): > 1000 µg/mL | MIC ([4]; UC694, 20 h, St. faecalis UC 694, read-out: MIC): > 1000 µg/mL | MIC [5]: > 1000 µg/mL | MIC ([6]; UC95, 20 h, Ps. aeruginosa UC 95, read-out: MIC): 1000 µg/mL (≈ 2590 µM) | MIC ([7]; UC58, 20 h, K. pneumoniae UC 58, read-out: MIC): 1000 µg/mL (≈ 2590 µM) | MIC ([8]; UC126, 20 h, S. schottmuelleri UC 126): > 1000 µg/mL | MIC [9]: 1000 µg/mL (≈ 2590 µM) | MIC [10]: 500 µg/mL (≈ 1290 µM)

CCCC[C@@H]1CCN[C@H](C(=O)N[C@@H]([C@H]2O[C@H](SC)[C@H](O)[C@@H](O)[C@H]2O)[C@H](C)Cl)C1 [U-60,970E, 4-Cis-n-Butyl-L-Pipecolic Acid Amide of 7-Cl-MTL]
ED50 ([11]; po, oral): 3.13 mg/kg | ED50 ([11]; sc, subcutaneous): 0.44 mg/kg | in vivo activity compared with U-57,930E ([11]; infected mice): significantly more active | Median Protective Dose (CD50) ([11]; oral): 4.12 (2.93-5.81) mg/kg | Median Protective Dose (CD50) ([11]; subcutaneous): 0.29 (0.21-0.41) mg/kg | ED50 ([12]; oral): 4.42 mg/kg | ED50 ([12]; sc, subcutaneous): 0.67 mg/kg | in vivo activity compared with U-57,930E ([12]; infected mice): significantly more active | MIC [1, 18]: 0.125 µg/mL (≈ 0.285 µM) | MIC [1, 19]: 0.25 µg/mL (≈ 0.569 µM) | MIC [1, 20]: 0.062 µg/mL (≈ 0.141 µM) | MIC [2, 21]: 0.016 µg/mL (≈ 0.0364 µM) | MIC [3, 22]: 31.2 µg/mL (≈ 71.1 µM) | MIC [4, 23]: 0.25 µg/mL (≈ 0.569 µM) | MIC [6, 24]: > 125 µg/mL | MIC [7, 25]: 7.8 µg/mL (≈ 17.8 µM) | MIC [13]: 0.008 µg/mL (≈ 0.0182 µM) | MIC [8, 26]: 31.2 µg/mL (≈ 71.1 µM) | ED50 ([14]; UC76, 168 h, strain UC 76, oral): 8.12 mg/kg | ED50 ([14]; UC76, sc, 168 h, strain UC 76, subcutaneous): 1.32 mg/kg | in vivo activity compared with U-57,930E ([14]; infected mice): essentially the same activity | ED50 ([15]; strain C203, oral): 2.18 mg/kg | in vivo activity compared with U-57,930E ([15]; infected mice): essentially the same activity | ED50 ([15]; sc, strain C203, subcutaneous): 0.35 mg/kg

CS[C@H]1O[C@H]([C@H](NC(=O)c2cccnc2)[C@H](C)Cl)[C@H](O)[C@H](O)[C@H]1O [U-46,138]
Qual. Assay vs. S. lutea [16]: Inactive

CC[C@H]1CCN[C@@H](C(=O)N[C@@H]([C@H]2O[C@H](SC)[C@H](O)[C@@H](O)[C@H]2O)[C@H](C)Cl)C1 [V A]
MIC [1, 18]: 250 µg/mL (≈ 608 µM) | MIC [1, 19]: 1000 µg/mL (≈ 2430 µM) | MIC [1, 20]: 125 µg/mL (≈ 304 µM) | MIC [2, 21]: 62.5 µg/mL (≈ 152 µM) | MIC [3, 22]: > 1000 µg/mL | MIC [4, 23]: > 1000 µg/mL | MIC [6, 24]: > 1000 µg/mL | MIC [7, 25]: > 1000 µg/mL | MIC [13]: 62.5 µg/mL (≈ 152 µM) | MIC [8, 26]: > 1000 µg/mL | antibacterial potency compared with related form [17]: not as potent an antibacterial agent as the L-cis compound
